Measured values as given in patent US12319655B2, “RAF kinase inhibitors and methods of use thereof” (Deciphera Pharmaceuticals, LLC, priority 2021, dated 2025).

Experiments:
H2405 cells = test: H2405 Cell Proliferation Assay (1); format: cell-based; details: Homo sapiens, NCI-H2405
Experimental: H2405 Cell Proliferation Assay (1)
H2405 cells (catalog #CRL-5994) are obtained from the American Type Culture Collect (ATTC, Manassas, VA). Briefly, cells were grown in RPMI 1640 supplemented with 5% characterized fetal bovine serum (Invitrogen, Carlsbad, CA) and 1% Penicillin/Streptomycin/L-Glutamine at 37° C., 5% CO2, and 95% humidity. Cells are expanded until reaching 70-95% confluency at which point they are sub-cultured or harvested for assay use. A serial dilution of test compound is dispensed into a 96-well black clear bottom plate in triplicate. Three thousand cells are added per well in 200 μL complete growth medium in the 96-well plate. Plates are incubated for 67-72 h at 37° C., 5% CO2, and 95% humidity. At the end of the incubation, 40 μL of a 440 μM solution of resazurin (Sigma, St. Louis, MO) in PBS is added to each well of the plate and plates are incubated for an additional 5-6 h at 37° C., 5% CO2, and 95% humidity. Plates are read on a Synergy2 or equivalent reader (Biotek, Winooski VT) using an excitation of 540 nm and an emission of 600 nm. Data is analyzed using Prism software (GraphPad, San Diego, CA) to calculate IC50 values.

A375 cells = test: A375 Cell Proliferation Assay (1); format: cell-based; details: Homo sapiens, A-375
How it was run: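 Resazurin fluorescence (excitation 540 nm, emission 600 nm, after a further 5-6 h) gave IC50s from triplicate compound dilution series.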

[1] = biological target: C-Raf kinase (SEQ. ID NO: 3) (Homo sapiens (Human), UniProt P04049, Y340D/Y341D); test: Biochemical Assay for C-Raf (1); details: Table J, assay version (1); read-out: CRAF (1) IC50
Chain of C-Raf kinase (SEQ. ID NO: 3) (P04049 307-648 Y340D/Y341D): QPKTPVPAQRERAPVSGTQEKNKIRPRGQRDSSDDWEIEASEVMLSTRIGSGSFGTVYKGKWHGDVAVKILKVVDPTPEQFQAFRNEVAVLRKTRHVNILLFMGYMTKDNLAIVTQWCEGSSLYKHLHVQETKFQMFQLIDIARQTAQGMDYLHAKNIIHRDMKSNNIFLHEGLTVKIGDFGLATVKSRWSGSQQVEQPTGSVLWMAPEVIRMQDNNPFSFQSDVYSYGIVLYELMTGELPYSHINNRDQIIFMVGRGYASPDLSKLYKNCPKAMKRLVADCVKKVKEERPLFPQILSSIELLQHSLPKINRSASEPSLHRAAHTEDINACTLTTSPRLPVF
How it was run: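 Coupled pyruvate kinase/LDH assay tracking NADH oxidation at 340 nm, with 0.43 nM C-Raf, 30.1 nM MEK and 1 mM ATP in pH 7.5 Tris buffer (15 mM MgCl2, 1% DMSO final). Read continuously for 6 h at 30 °C, rate taken from the 4–5 h window. IC50 from four-parameter fit of percent inhibition.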

[2] = biological target: B-Raf kinase (SEQ. ID NO: 2) (Homo sapiens (Human), UniProt P15056); test: Biochemical Assay for B-Raf (1); details: Table J, assay version (1); read-out: BRAF (1) IC50
Chain of B-Raf kinase (SEQ. ID NO: 2) (P15056 416-766): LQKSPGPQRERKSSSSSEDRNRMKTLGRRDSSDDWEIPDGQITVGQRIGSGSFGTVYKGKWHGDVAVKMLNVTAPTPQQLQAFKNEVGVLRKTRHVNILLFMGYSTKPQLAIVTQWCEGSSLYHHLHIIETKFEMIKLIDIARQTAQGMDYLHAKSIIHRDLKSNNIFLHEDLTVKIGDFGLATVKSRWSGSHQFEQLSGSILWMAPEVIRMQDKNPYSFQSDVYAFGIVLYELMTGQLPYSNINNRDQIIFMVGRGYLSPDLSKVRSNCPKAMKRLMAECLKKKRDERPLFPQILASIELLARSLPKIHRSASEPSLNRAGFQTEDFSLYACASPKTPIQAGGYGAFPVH
How it was run: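 Continuous PK/LDH-coupled NADH oxidation assay, A340 read for 6 h at 30° C., with 0.13 nM B-Raf, 30.1 nM MEK substrate and 1 mM ATP in Tris pH 7.5, MgCl2, DTT, detergents, 1% DMSO. Rate taken from 4–5 h window; percent inhibition vs no-compound and known-inhibitor controls; four-parameter fit gives IC50.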

IC50 (H2405 cells) [nM] | IC50 (A375 cells) [nM] | IC50 [1] [nM] | IC50 [2] [nM] | SMILES
100 to 500 | 100 to 500 | ≤ 100 | ≤ 100 | CCOc1cc(-c2cc(NC(=O)c3ccnc(C(F)(F)F)c3)ccc2C)cc(-c2ccnc(NC(=O)C3CC3)c2)n1 [Example 12]
 | 1000 to 10000 | ≤ 100 | ≤ 100 | Cc1ccc(NC(=O)c2ccnc(C(F)(F)F)c2)cc1-c1cc(-c2ccnc(NC(=O)C3CC3)c2)n(C)c(=O)c1 [Example 13]
 | ≤ 100 | ≤ 100 | ≤ 100 | CC(=O)Nc1cc(-c2cc(-c3cc(NC(=O)c4ccnc(C(F)(F)F)c4)ccc3C)cc(C3CC3)n2)ccn1 [Example 14]
≤ 100 | ≤ 100 | ≤ 100 | ≤ 100 | CC(=O)Nc1cc(-c2cc(-c3cc(NC(=O)c4ccnc(C(F)(F)F)c4)ccc3C)cc(N3CCOCC3)n2)ccn1 [Example 15]
1000 to 10000 | 1000 to 10000 | ≤ 100 | ≤ 100 | Cc1ccc(NC(=O)c2ccnc(C(F)(F)F)c2)cc1-c1ccnc(-c2ccnc(N)c2)c1 [Example 16, N-(3-(2′-amino-[2,4′-bipyridin]-4-yl)-4-methylphenyl)-2-(trifluoromethyl)isonicotinamide]
 | 100 to 500 | ≤ 100 | ≤ 100 | Cc1ccc(NC(=O)c2ccnc(C(F)(F)F)c2)cc1-c1ccnc(-c2ccnc(NC(=O)CN(C)C)c2)c1 [Example 17]
 | 1000 to 10000 | ≤ 100 | ≤ 100 | Cc1ccc(NC(=O)c2ccnc(C(F)(F)F)c2)cc1-c1ccnc(-c2ccnc3c2CC(=O)N3)c1 [Example 18]
≤ 100 | ≤ 100 | ≤ 100 | ≤ 100 | CC(=O)Nc1cc(-c2cc(-c3cc(NC(=O)c4ccnc(C(C)(C)C#N)c4)ccc3C)ccn2)ccn1 [Example 19]
 | 1000 to 10000 | ≤ 100 | ≤ 100 | Cc1cc(-c2cc(NC(=O)c3ccnc(C(F)(F)F)c3)ccc2C)cc(-c2ccnc3c2CC(=O)N3)n1 [Example 20]
≤ 100 | ≤ 100 | ≤ 100 | ≤ 100 | Cc1ccc(NC(=O)c2cc(CN(C)C)cc(C(F)(F)F)c2)cc1-c1cncc(-c2ccnc(NC(=O)C3CC3)c2)n1 [Example 185]
≤ 100 | ≤ 100 | ≤ 100 | ≤ 100 | Cc1ccc(NC(=O)c2ccnc(C(C)(C)F)c2)cc1-c1ccnc(-c2ccnc(NC(=O)C3CC3)c2)n1 [Example 186]
100 to 500 | ≤ 100 | ≤ 100 | ≤ 100 | Cc1ccc(NC(=O)c2ccnc(C3(C#N)CC3)c2)cc1-c1nccc(-c2ccnc(NC(=O)C3CC3)c2)n1 [Example 187]
100 to 500 | 100 to 500 | ≤ 100 | ≤ 100 | Cc1ccc(NC(=O)c2ccnc(C(F)F)c2)cc1-c1ccnc(-c2ccnc(NC(=O)C3CC3)c2)n1 [Example 189]
 | ≤ 100 | ≤ 100 | ≤ 100 | COC(C)(C)c1cc(C(=O)Nc2ccc(C)c(-c3ccnc(-c4ccnc(NC(=O)C5CC5)c4)n3)c2)ccn1 [Example 190]
≤ 100 | ≤ 100 | ≤ 100 | 100 to 500 | CNC(=O)c1cc(-c2cccc(-c3cc(NC(=O)c4ccnc(C(C)(C)C#N)c4)ccc3C)c2)cnn1 [Example 191]
100 to 500 | ≤ 100 | ≤ 100 | 100 to 500 | CNC(=O)c1cc(-c2cccc(-c3cc(NC(=O)c4ccnc(C(C)(C)C#N)c4)cnc3C)c2)ccn1 [Example 192]
≤ 100 | ≤ 100 | ≤ 100 | ≤ 100 | Cc1ncc(NC(=O)c2ccnc(C(C)(C)C#N)c2)cc1-c1ccnc(-c2ccnc(NC(=O)C3CC3)c2)n1 [Example 193]
 | 500 to 1000 | 100 to 500 | 500 to 1000 | CNC(=O)c1cc(-c2nccc(-c3cc(NC(=O)c4ccnc(C(C)(C)C#N)c4)cnc3C)n2)ccn1 [Example 194]

IC50 (H2405 cells) [nM] | IC50 (A375 cells) [nM] | IC50 [1] [nM] | IC50 [2] [nM] | SMILES
100 to 500 | ≤ 100 | 100 to 500 | 100 to 500 | CNC(=O)c1cc(-c2nc(-c3cc(NC(=O)c4ccnc(C(C)(C)C#N)c4)ccc3C)cc(C3CC3)n2)ccn1 [Example 196]
 | ≤ 100 | 100 to 500 | 500 to 1000 | Cc1ccc(NC(=O)c2ccnc(C(C)(C)C#N)c2)cc1-c1cccc(-c2cc(NC(=O)C3(C)CC3)ncn2)c1 [Example 197]
100 to 500 | 1000 to 10000 | 100 to 500 | 500 to 1000 | CNC(=O)c1cc(-c2ccnc(-c3cc(NC(=O)c4ccnc(C(C)(C)C#N)c4)cnc3C)n2)ccn1 [Example 199]
 | ≤ 100 | ≤ 100 | 100 to 500 | Cc1ccc(NC(=O)c2ccnc(C(C)(C)C#N)c2)cc1-c1cccc(-c2cc(NC(=O)C3(F)CC3)ncn2)c1 [Example 200]
 | ≤ 100 | ≤ 100 | ≤ 100 | Cc1ccc(NC(=O)c2ccnc(C3(C#N)CC3)c2)cc1-c1cccc(-c2cc(NC(=O)C3CC3)ncn2)c1 [Example 203]
 | 100 to 500 | ≤ 100 | 100 to 500 | CNC(=O)c1cc(-c2cc(-c3cc(NC(=O)c4ccnc(C(C)(C)C#N)c4)ccc3F)ccn2)ccn1 [Example 205]
 |  | 500 to 1000 | 1000 to 10000 | Cc1ncc(NC(=O)c2ccnc(C(C)(C)C#N)c2)cc1-c1cccc(-c2cc(NC(=O)C(C)(C)C)ncn2)c1 [Example 213]
 | 500 to 1000 | ≤ 100 | ≤ 100 | CNC(=O)c1cc(-c2cc(-c3cc(NC(=O)c4cnnc(C5CC5)c4)ccc3C)ccn2)ccn1 [Example 215]
 | ≤ 100 | 100 to 500 | 100 to 500 | Cc1ccc(NC(=O)c2ccnc(C(C)(C)C#N)c2)cc1-c1cc(-c2cc(NC(=O)C3CC3)ncn2)cc(C2CC2)c1 [Example 216]
 | 100 to 500 | 100 to 500 | 100 to 500 | Cc1ncc(NC(=O)c2ccnc(C(C)(C)C#N)c2)cc1-c1ccnc(-c2ccnc(NC(=O)C(C)(C)C#N)c2)c1 [Example 219]
 | 1000 to 10000 | 100 to 500 | 100 to 500 | Cc1ccc(NC(=O)c2ccnc(C3(C#N)CC3)c2)cc1-c1cccc(-c2cc(NC(=O)C3CC3)ncn2)n1 [Example 220]
 | 1000 to 10000 | 500 to 1000 | 1000 to 10000 | Cc1ncc(NC(=O)c2ccnc(C(C)(C)C#N)c2)cc1-c1cccc(-c2cc(NC(=O)C3CC3)ncn2)n1 [Example 226]
 | 500 to 1000 | ≤ 100 | 100 to 500 | Cc1ccc(NC(=O)c2ccnc(C(C)(C)C#N)c2)cc1-c1cccc(-c2cc(NC(=O)C3CC3)ncn2)n1 [Example 233]
 | 1000 to 10000 | ≤ 100 | ≤ 100 | Cc1cc(F)c(NC(=O)c2cnnc(C3CC3)c2)cc1-c1nccc(-c2ccnc(NC(=O)C3CC3)c2)n1 [Example 252]
 | ≤ 100 | ≤ 100 | ≤ 100 | Cc1ccc(NC(=O)c2ccnc(C(C)(C)C#N)c2)cc1-c1ccnc(-c2ccnc(NC(=O)C3CC3)c2)n1 [Example 257]
 | ≤ 100 | ≤ 100 | ≤ 100 | Cc1cc(F)c(NC(=O)c2ccnc(C3(C#N)CC3)c2)cc1-c1ccnc(-c2ccnc(NC(=O)C3CC3)c2)n1 [Example 262]
 | 1000 to 10000 | ≤ 100 | ≤ 100 | Cc1cc(F)c(NC(=O)c2cnnc(C3CC3)c2)cc1-c1ccnc(-c2ccnc(NC(=O)C3CC3)c2)n1 [Example 263]
